Assays:
[1] = test system: biomarkers for myocardial infarction risk; settings: clinical trial; cited from earlier work
[2] = target: recombinant human FLAP protein (Homo sapiens (Human), UniProt P20292); assay: FLAP binding assay (Scintillation Proximity Assay, displacement of [125I]L-691,831); settings: read-out: FLAP SPA IC50
Method in brief: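 Scintillation proximity displacement of an iodinated (125I) FLAP inhibitor by test compounds, using 100,000×g membrane fraction from lysed cells. Final beads 200 μg/well and protein 5 μg/well; plates shaken 2 h before reading.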

[3] = test system: synthesis of LTB4 in human whole blood; assay: Human whole blood LTB4 production inhibition assay; format: cell-based; settings: calcimycin stimulated, read-out: hWB LTB4 IC50
Method in brief: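 Heparinized human whole blood preincubated with compound 15 min at 37 °C, then stimulated with calcimycin (20 μM final) for 30 min at 37 °C. Plasma LTB4 measured after low-speed centrifugation by antibody-based homogeneous time-resolved fluorescence.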

proteinuria = settings: clinical trial, human glomerulonephritis; cited from earlier work
atherosclerotic plaque [4] = settings: oral dosing, high-fat diet from 2 to 6 months of age; cited from earlier work
atherosclerotic plaque [5] = settings: infusion, treated for four weeks; cited from earlier work

Chain of recombinant human FLAP protein (P20292 whole entry): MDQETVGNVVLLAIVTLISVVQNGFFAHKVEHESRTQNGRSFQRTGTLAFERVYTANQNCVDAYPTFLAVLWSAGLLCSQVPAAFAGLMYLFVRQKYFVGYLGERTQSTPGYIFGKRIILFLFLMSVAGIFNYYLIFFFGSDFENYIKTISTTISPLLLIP

Structure (SMILES)	IC50 [2] [nM]	IC50 [3] [nM]	further results
O=C(O)[C@@H](c1ccc(OCc2ccc3ccccc3n2)cc1)C1CCCC1 [DG-031]			effect on biomarkers for myocardial infarction risk [1]: dose-dependent suppression of several biomarkers
CN(C)C(=O)Cn1cc(-c2nc(C3(c4ccc(-c5ccc(N)nc5)nc4)CCC3)no2)cn1 [Example 163, 2-(4-{3-[1-(6′-amino-[2,3′]bipyridinyl-5-yl)-cyclobutyl]-[1,2,4]oxadiazol-5-yl}-pyrazol-1-yl)-N,N-dimethyl-acetamide]	110	300	
CN(C)C(=O)Cn1cc(-c2nc(C3(c4ccc(-c5cnc(N)cn5)nc4)CCC3)no2)cn1 [Example 164, 2-[4-(3-{1-[6-(5-amino-pyrazin-2-yl)-pyridin-3-yl]-cyclobutyl}-[1,2,4]oxadiazol-5-yl)-pyrazol-1-yl]-N,N-dimethyl-acetamide]	43	170	
CNc1ncc(-c2ccc(C3(c4noc(-c5cnn(CC(C)(C)O)c5)n4)CCC3)cn2)cn1 [Example 165, 2-Methyl-1-[4-(3-{1-[6-(2-methylamino-pyrimidin-5-yl)-pyridin-3-yl]-cyclobutyl}-[1,2,4]oxadiazol-5-yl)-pyrazol-1-yl]-propan-2-ol]	73	280	
N#Cc1cc(-c2ccc(C3(c4noc(-c5cnn(C6COC6)c5)n4)CCC3)cn2)cnc1N [Example 167, 6′-Amino-5-{1-[5-(1-oxetan-3-yl-1H-pyrazol-4-yl)-[1,2,4]oxadiazol-3-yl]-cyclobutyl}-[2,3′]bipyridinyl-5′-carbonitrile]	140	680	
CNc1cnc(-c2ccc(C3(c4noc(-c5cnn(C)c5)n4)CCC3)cn2)cn1 [Example 168, Methyl-[5-(5-{1-[5-(1-methyl-1H-pyrazol-4-yl)-[1,2,4]oxadiazol-3-yl]-cyclobutyl}-pyridin-2-yl)-pyrazin-2-yl]-amine]	33	99	
COCCn1cc(-c2nc(C3(c4ccc(-c5cnc(N)cn5)nc4)CCC3)no2)cn1 [Example 171, 5-[5-(1-{5-[1-(2-Methoxy-ethyl)-1H-pyrazol-4-yl]-[1,2,4]oxadiazol-3-yl}-cyclobutyl)-pyridin-2-yl]-pyrazin-2-ylamine]	50	76	
Cn1cc(-c2nc(C3(c4ccc(-c5cnc(N)cn5)nc4)CCC3)no2)cn1 [Example 174, 5-(5-{1-[5-(1-Methyl-1H-pyrazol-4-yl)-[1,2,4]oxadiazol-3-yl]-cyclobutyl}-pyridin-2-yl)-pyrazin-2-ylamine]	39	74	
Cc1nc(N)ncc1-c1ccc(C2(c3noc(-c4cnn(CC(C)(C)O)c4)n3)CCC2)cn1 [Example 175, 1-[4-(3-{1-[6-(2-Amino-4-methyl-pyrimidin-5-yl)-pyridin-3-yl]-cyclobutyl}-[1,2,4]oxadiazol-5-yl)-pyrazol-1-yl]-2-methyl-propan-2-ol]	830	620	
CNc1cnc(-c2ccc(C3(c4noc(-c5cnn(C6COC6)c5)n4)CCC3)cn2)cn1 [Example 176, Methyl-[5-(5-{1-[5-(1-oxetan-3-yl-1H-pyrazol-4-yl)-[1,2,4]oxadiazol-3-yl]-cyclobutyl}-pyridin-2-yl)-pyrazin-2-yl]-amine]	23	73	
CNc1cnc(-c2ccc(C3(c4noc(-c5cnn(CC(C)(C)O)c5)n4)CCC3)cn2)cn1 [Example 177, 2-Methyl-1-[4-(3-{1-[6-(5-methylamino-pyrazin-2-yl)-pyridin-3-yl]-cyclobutyl}-[1,2,4]oxadiazol-5-yl)-pyrazol-1-yl]-propan-2-ol]	32	160	
CC(C)(C)Sc1c(CC(C)(C)C(=O)O)n(Cc2ccc(Cl)cc2)c2ccc(OCc3ccc4ccccc4n3)cc12 [MK-591]			effect on proteinuria (proteinuria): reduce proteinuria
CC(C)c1ccc2c(c1)c(SC(C)(C)C)c(CC(C)(C)C(=O)O)n2Cc1ccc(Cl)cc1 [MK-886]			decrease in plaque coverage in the aorta (atherosclerotic plaque [4]): 56%; decrease in plaque coverage in the aortic root (atherosclerotic plaque [4]): 43%; decrease in plaque area in the aortic root (atherosclerotic plaque [5]): ~40%
